Measurements: US12616684B2, “Pulmonary fibrosis medicine containing pyrazole derivative” (priority 2020, dated 2026)
Counter-ions that a name gives are not always drawn. Like-named read-outs stand apart in the source and are kept apart here.

What was measured:
[1] = tested on: C57BL/6J mice with bleomycin-induced pulmonary fibrosis; experiment: Mouse model with bleomycin-induced pulmonary fibrosis; assay type: in vivo; conditions: for improved (modified) Ashcroft score: oral once a day for 28 days, Compound 1 60 mg/kg, nintedanib 100 mg/kg, BLM group 5.5±0.8, mean and standard deviation, FIG. 9
Experimental: For the mouse model with bleomycin-induced pulmonary fibrosis, C57BL/6J male mice aged 5 weeks and before and after body weight of 20 g were used. C57BL/6J mice were anesthetized by intraperitoneally injection of pentobarbital (40 mg/kg), the skin of the anterior neck or midline was incised, the trachea was exposed with a self-retaining retractor, and then a micro syringe was inserted from the occipital side to the lungs to slowly administer bleomycin (2 mg/kg) while checking the state of respiration. Immediately after injection, the skin of the incised anterior neck or midline was sutured, and then they were bred in a sterile animal room at constant temperature (22-26° C.) and constant humidity (55-60%). By this method, remarkable fibrosis occurred in the lungs, usually after 3 weeks of treatment. Experimental animals were 7 animals in each group, and the experiment was conducted by dividing them into the following groups: a control group (Control) orally administered with distilled water, a group (BLM) with bleomycin-induced pulmonary fibrosis, an experimental group as a positive control group (BLM+Nintedanib) orally administered with 100 mg/kg of nintedanib daily 3 weeks after administration of bleomycin, and an experimental group (BLM+Compound 1) orally administered with 60 mg/kg of Compound 1 daily 3 weeks after administration of bleomycin. Nintedanib and Compound 1 were orally administered once a day for 28 days. On the day after the last administration of nintedanib or compound 1, each animal was anesthetized, and then was bled by cardiac puncture and sacrificed. Lung tissues were enucleated from all animals for histopathological examination. The enucleated lung tissue was fixed in 10% neutral buffered formalin (NBF). The fixed lung tissue was embedded in paraffin and sliced to a thickness of 4 μm to prepare a tissue slide. The tissue slides were subjected to hematoxylin & eosin (H&E) staining, which is cell staining, and Masson's trichrome (MT) staining to confirm fibrosis. Histopathological examination of the prepared tissue slides was confirmed using an optical microscope (Carl Zeiss, Oberkochen, Germany). The severity of fibrosis was assessed using the modified Ashcroft scale, which is a semi-quantitative histopathological scoring. For immunohistochemical staining, the tissue slides prepared above were de-paraffinized, and then rabbit anti-α-smooth muscle actin (SMA) antibody or rabbit anti-collagen type I antibody was used as a primary antibody. And, Vectastatin ABC kit (Vector Laboratories, Inc, Burlingame, CA) was used to confirm the expression of the antigen reacted with each antibody. […] When reading the staining result, if the cytoplasm is colored reddish-brown in whole or in part, it is considered that there is an immune reaction, and thus, it is read as positive. From the experimental results, the mean and standard deviation were obtained using the SPSS ver. 22.0 statistical program (SPSS Inc., Chicago, IL, USA), and the significance of the difference between the experimental groups was verified at p<0.05 level by the student t-test.

[2] = tested on: severe acute respiratory syndrome coronavirus 2 (SARS-CoV2); experiment: Antiviral activity against SARS-CoV2 in Calu-3 cells, real-time qRT-PCR; assay type: cell-based; conditions: for IC50: Severe acute respiratory syndrome coronavirus 2, SARS-CoV2 in Calu-3 cells, read-out: IC50 (50% inhibition concentration), antiviral efficacy
[3] = Toxicity to Calu-3 human lung epithelial cells; assay type: cell-based; conditions: Calu-3 cells, read-out: CC50 (50% cytotoxic concentration)
Experimental: In order to analyze the antiviral activity of the compounds of the synthetic examples, real-time qRT-PCR (quantitative RT-PCR) was perfumed using severe acute respiratory syndrome coronavirus 2 (SARS-CoV2) and Calu-3 cells, which are human lung epithelial cells. Human lung epithelial cells (Calu-3) were cultured in Dulbecco's Modified Eagle Medium (DMEM) at 37° C. under 5% CO2. The concentration of Compound 1 was 15, 12.5, 6.25, 3.125, 1.563, 0.781, 0.391, 0.195, 0.098, 0.049, 0.024, 0.012 μM. Antiviral efficacy (IC50; 50% inhibition concentration) and toxicity to the cells (CC50; 50% cytotoxic concentration) according to drug concentration were measured at 24 hours and 48 hours after treatment on the cells by concentration, and are shown in Table 1 and FIG. 10.

[4] = tested on: normal human lung fibroblasts (NHLFs); experiment: TGF-β1-induced αSMA and collagen type I expression (myofibroblast differentiation), immunocytochemistry; assay type: cell-based; conditions: 10 ng/ml TGF-β1 72 hours, 2 mM Compound 1 pre-treated 1 hour
Experimental: In order to analyze the effect of Compound 1 on the differentiation of lung fibroblasts into myofibroblasts, the inhibitory effect of Compound 1 on the increase in the expression of TGF-β1-induced α-smooth muscle actin (αSMA) and collagen type I (collagen I) in normal human lung fibroblasts (NHLFs, Lonza) was observed. NHLF cells were suspended in culture medium (FGM-2 Bulletkit media, Lonza) and inoculated at a concentration of 1×10^4 cells/well on a 4-well chamber slide (Nunc). After 24 hours of culture in a CO2 incubator, the medium was replaced with a serum-free medium and further cultured for 12 hours. Thereafter, vehicle and 2 mM Compound 1 were pre-treated in the corresponding wells for 1 hour, and then 10 ng/ml of TGF-β1 was treated in each well except for the negative control (vehicle group) for 72 hours. Confirmation of the expression of αSMA and collagen I in the prepared cells was performed through immunocytochemistry as follows. Cells were fixed in 4% paraformaldehyde for 10 minutes and permeated using 0.1% Triton X-100, and primary antibody (anti-αSMA Ab, 1:200; anti-collagen I Ab, 1:500, reacted for 3 hours at room temperature) and secondary antibody (ALEXA™-594 conjugated Ab, 1:1000, reacted for 1 hour at room temperature) treatment process was sequentially performed, and then the expression of αSMA and collagen I was observed using a fluorescence microscope. […]

IL-1β = experiment: LPS-induced IL-1β expression in normal human lung fibroblasts, RT-PCR; assay type: cell-based; conditions: NHLFs, pre-treated 30 minutes, LPS 6 hours, FIG. 4
[5] = tested on: normal human lung fibroblasts (NHLFs); experiment: PMA stimulation-induced reactive oxygen species generation in normal human lung fibroblasts; assay type: cell-based; conditions: FIG. 1
Text: In order to confirm the effect of the compounds of the synthetic examples on the generation of reactive oxygen species from lung fibroblasts, the generation of reactive oxygen species was induced through PMA stimulation in normal human lung fibroblasts (NHLFs, Lonza), and the inhibitory effect of Compound 1 on the generation of reactive oxygen species was observed under this condition. Each cell was suspended in a culture medium containing 10% FBS, seeded in a 96-well plate, and cultured for 24 hours under conditions of 5% CO2 and 37° C. After pre-treating Compound 1 for 30 minutes to 1 hour, TGF-β1 or phorbol 12-myristate 13-acetate (PMA) stimulation was applied to each well including cells and drugs.

[6] = 60 mg/kg oral once a day for 28 days, FIG. 5

Structure (SMILES)	improved (modified) Ashcroft score [1]	SI ([2]; CC50/IC50, 24 hours)	SI ([2]; CC50/IC50, 48 hours)	IC50 ([2]; 24 hours after treatment) [µM]	IC50 ([2]; 48 hours after treatment) [µM]	deformation of the lung structure (H&E staining) [1, 6]	hypertrophic epithelial cells (H&E staining) [1, 6]	site of abnormal tissue deposition (H&E staining) [1, 6]	degree of infiltration of inflammatory cells into the alveolus and bronchiole (H&E staining) ([1]; 60 mg/kg oral once a day for 28 days, compared with BLM and BLM+Nintedanib groups, FIG. 5)	size of the fibrosis area and deposition of collagen due to fibrosis (Masson's trichrome staining) ([1]; 60 mg/kg oral once a day for 28 days, compared with BLM and BLM+Nintedanib groups, FIG. 6)	expression of α-SMA in lung tissue (immunohistochemical staining) ([1]; 60 mg/kg oral once a day for 28 days, compared with BLM and BLM+Nintedanib groups, FIG. 7)	expression of collagen type I (collagen I) in lung tissue (immunohistochemical staining) ([1]; 60 mg/kg oral once a day for 28 days, compared with BLM and BLM+Nintedanib groups, FIG. 8)	CC50 at 24 h ([3]; 24 hours after treatment) [µM]	CC50 at 48 h ([3]; 48 hours after treatment) [µM]	increase in the expression of αSMA ([4]; FIG. 2)	increase in the expression of collagen I ([4]; FIG. 3)	LPS-induced IL-1β expression (IL-1β)	generation of PMA stimulation-induced reactive oxygen species [5]
COC(=O)c1ccc2c(c1)NC(=O)/C2=C(\Nc1ccc(N(C)C(=O)CN2CCN(C)CC2)cc1)c1ccccc1 [nintedanib, reference compound]	5.2±0.45	–	–	–	–	–	–	–	–	–	–	–	–	–	–	–	–	–
CCCc1c(-c2ccccc2)nn(-c2ccccn2)c1O [Compound 1, 3-phenyl-4-propyl-1-(pyridin-2-yl)-1H-pyrazol-5-ol hydrochloride]	4.0±1.1	13.80	98.50	31.5	1.67	reduced	decreased	reduced	significantly lower than that of the experimental group and the positive control group	remarkably reduced	reduced	remarkably reduced	435	164	remarkably inhibited	remarkably inhibited	effectively inhibited in a concentration-dependent manner	inhibited in a concentration-dependent manner
